Measured values published in patent publication US20250288553A1, “Antimicrobial Compositions and Uses for Treatment of Clostridioides difficile, Mycobacterium tuberculosis, and Enterococcus faecalis Infection” (priority 2022, published 2025).
In brackets after ≈: the same amount, converted by molar mass. Several values for one entry are separate records, joined by “and”; a condition that tells them apart may be missing. Equal values may be shown once.

How the values were obtained:
Mtb = settings: at a concentration of 12.5 μg/mL; cited from earlier work
active Mtb = settings: earlier screen (ref 12); cited from earlier work
dormant Mtb = settings: earlier screen (ref 12); cited from earlier work
[1] = tested on: replicating Mtb-lux (Mycobacterium tuberculosis CDC1551 with pMV306hsp+LuxG13); format: cell-based
[2] = tested on: dormant Mtb-lux (Mycobacterium tuberculosis CDC1551 with pMV306hsp+LuxG13); format: cell-based; settings: for R/D (MICR/MICD, Mtb-lux): ratio replicating MIC to dormant MIC
[3] = tested on: TcdA production in C. difficile NAP1; experiment: Toxin analysis: extracellular TcdA of C. difficile NAP1 at sub-MICs, western blot; format: cell-based, Clostridioides difficile; settings: NAP1 challenged with 0.5×, 0.25×, 0.125× MIC, 48 h, TcdA normalized to total protein
Experimental: After a 48 h incubation of NAP1 challenged with several dilutions of each compound, extracellular toxin in spent media derived from triplicate cultures was assessed with western blots using a monoclonal antibody against TcdA. Semi-quantitative analysis of toxin levels was performed via densitometry of TcdA band intensity with respect to total protein as measured by the Bradford assay. Semi-quantitative plots are shown below each representative blot. (a) Toxin production in BHIS (NAP1) and BHIS with 5% DMSO (vehicle). (b) Toxin production from cultures challenged with sub-MICs of fidaxomicin, (c) vancomycin, and (d-j) (+)-puupehenone and selected derivatives. Data points represent the means of adjusted toxin levels derived from triplicate cultures, while error bars represent standard deviations. Statistical analysis was performed in GraphPad Prism 8 using unpaired t-tests. *P<0.05; **P<0.01.
To account for changes in biomass, a semi-quantitative analysis of TcdA production was performed by normalizing the target bands from representative western blots to the amount of total protein in each sample.
Toxin analysis. Toxin production was determined by analyzing the amount of extracellular toxin in the cultures from the ASTs described above. At 48 h, total protein of each culture was determined with the Bradford assay using bovine serum albumin (BSA) as a standard.^53 Cultures were then centrifuged at 5,000×g for 5 minutes to clear the supernatants which were separately collected and frozen at −20° C. After thawing at room temperature, cell-free supernatants were mixed 1:1 with 2× Laemmli buffer and incubated in a sand bath at 100° C. for 5 minutes. Twenty microliters of denatured samples were loaded onto 7.5% Tris-glycine gels and electrophoresed at 200 V for 1 h. After electrophoresis, samples were transferred to polyvinylidene difluoride membranes at 4° C. overnight at 30 V. Membranes were incubated in a blocking buffer (20 mM Tris-HCl, 150 mM NaCl, 0.01 mM ethylenediaminetetraacetic acid, 0.1% Tween 20, 1% BSA, [pH 7.5]) for 1 h at room temperature. TcdA was detected with a monoclonal mouse anti-TcdA antibody (PCG4.1, Novus Biologicals) and a rabbit anti-mouse antibody conjugated with alkaline phosphatase. Blots were visualized with a ChemiDoc XRS+ imaging system (Bio-Rad).
Semi-quantitative analysis of TcdA was performed using Image Lab 6.0 software (Bio-Rad). Briefly, after subtracting background noise, peaks corresponding to the target band were selected with the software's Lane Profile tool. The density of each peak generated a value (arbitrary units) that was normalized to the total protein amount of each respective sample. […] These losses of activity prevented us from performing statistical analysis from multiple experiments, as the sub-MICs were not always the same. Since there were no changes to the methodology described, several other reasons could have accounted for decreased activity, such as compound stability, freeze-thaw, and adherence to plastic. Nevertheless, the toxin results were reproducible, irrespective of the exact sub-MICs on different days.

[4] = tested on: Staphylococcus aureus ATCC 25923; experiment: MIC against S. aureus, REMA; settings: visual, 24 h
[5] = tested on: Bacillus subtilis ATCC 23857; experiment: MIC against B. subtilis, REMA; settings: REMA, visual, 24 h
[6] = tested on: Enterococcus faecalis ATCC 29212; experiment: MIC against E. faecalis, REMA; settings: REMA, visual, 24 h
[7] = tested on: Clostridioides difficile NAP1; experiment: MIC against C. difficile NAP1, modified broth microdilution; settings: for MIC C. difficile: NAP1, modified broth microdilution, 48 h, anaerobic
[8] = tested on: Mycobacterium tuberculosis H37Ra ATCC 25177; experiment: MIC against Mtb H37Ra, resazurin microtiter assay (REMA); format: cell-based
[9] = tested on: M. smegmatis mc^2155 ATCC 700084; experiment: MIC against M. smegmatis, REMA; format: cell-based, Mycobacterium smegmatis; settings: Mycolicibacterium smegmatis, ATCC700084|MC^2155; determined visually by REMA assay, 24-hour incubation
[10] = Cytotoxicity assay J774A.1; format: cell-based, murine; settings: mouse, J774A.1 macrophage-like cells; J774A.1 cells; read-out: Cytotoxicity (IC50) J774
Experimental: (§1) To evaluate the selectivity of the top six compounds from the Mtb-lux activity screen (Table 2), cytotoxicity for two different mammalian cell lines was determined. The IC50 was calculated for each compound against J774A.1 and HepG2 cell lines. The selectivity index (SI) for both replicating and dormant conditions was then calculated by taking the IC50 and dividing it by the corresponding MIC (SIR=IC50/MICR, SID=IC50/MICD)^40. Consistent with the experience, the J774 macrophage cell line was more sensitive to all compounds tested. […] Based on these observations, this triacetate protected puupehenone represents a promising candidate for further optimization.
(§2) Cytotoxicity assay: Cytotoxicity was assessed using J774A.1 (murine macrophage-like) and HepG2 (human liver carcinoma) cell lines using 2-fold dilution of the compounds as described previously^42, 43. IC50 values were determined using nonlinear regression fitting of the databy GraphPad Prism. The selectivity Index (SI) was calculated as IC50/MIC.

[11] = tested on: J774A.1 (murine macrophage-like) cell line; experiment: Cytotoxicity assay J774A.1; format: cell-based
Experimental: as §1, §2

Cytotoxicity assay HepG2 = settings: human
[12] = tested on: HepG2 (human liver carcinoma) cell line; experiment: Cytotoxicity assay HepG2

SMILES	MICR (Mtb-lux) [1]	MICD (Mtb-lux) [2]	R/D (MICR/MICD, Mtb-lux) [2]	Effect on TcdA toxin production [3]	MIC S. aureus [4]	MIC B. subtilis [5]	MIC E. faecalis [6]	MIC C. difficile [7]	also measured
CC1(C)CCC[C@]2(C)[C@H]3[C@H](C#N)c4cc(O)c(O)cc4O[C@@]3(C)CC[C@@H]12 [Compound 4, 15-α-cyanopuupehenol]	–	–	–	–	–	–	–	–	inhibition of Mtb (Mtb): 96%
CO[C@@H]1c2cc(O)c(O)cc2O[C@@]2(C)CCC3C(C)(C)CCC[C@]3(C)[C@@H]12 (stereo partly drawn) [Compound 3, 15-α-methoxypuupehenol]	–	–	–	–	–	–	–	–	MIC against active Mtb (active Mtb): 11.3 µg/mL (≈ 31.3 µM); MIC in multistress dormancy model of Mtb (dormant Mtb): 0.5 µg/mL
CC1(C)CCCC2(C)C1CCC(C)(O)C2Cc1ccc(O)cc1 (stereo not drawn) [Compound 34]	114.3 µg/mL	30.9 µg/mL	3.7	decreased the amount of toxin in a similar concentration-dependent manner	16.9 µg/mL (≈ 53.4 µM)	7.9 µg/mL (≈ 25 µM)	15.8 µg/mL (≈ 49.9 µM)	16.0 µg/mL (≈ 50.6 µM)	–
CC1(C)CCC[C@]2(C)[C@H]3C(C#N)=C4C=C(O)C(=O)C=C4O[C@@]3(C)CC[C@@H]12 [Compound 5, 15-cyanopuupehenone]	–	–	–	–	–	–	–	–	inhibition of Mtb (Mtb): 90%
CO[C@@H]1c2cc(OC(C)=O)c(OC(C)=O)cc2O[C@@]2(C)CC[C@H]3C(C)(C)CCC[C@]3(C)[C@@H]12 [Compound 15]	8.9 µg/mL	1.7 µg/mL	5.2	decreased the amount of toxin in a similar concentration-dependent manner	–	–	–	4.0 µg/mL (≈ 9 µM)	MIC ([8]; Mycobacterium tuberculosis, 336 h, determined visually by REMA assay, 14-day incubation, read-out: MIC Mtb H37Ra): 2.7 µg/mL (≈ 6.07 µM); MIC [9]: 22.2 µg/mL (≈ 49.9 µM); IC50 [10]: 59.1 µM; SI (SID) J774 [11]: 34.8; SI (SIR) J774 [11]: 6.6; IC50 (Cytotoxicity assay HepG2): ~107 µM; SI (SID) HepG2 [12]: 62.9; SI (SIR) HepG2 [12]: 12.0; MIC ([7]; Clostridioides difficile, NAP1, 48 h, read-out: MIC C. difficile, NAP1, modified broth microdilution, 48 h, anaerobic): 2 to 4 µg/mL (≈ 4.5 to 9 µM)
CC1(C)CCC[C@]2(C)[C@@H]1CC[C@]1(C)Oc3ccc(O)cc3C[C@@H]21 [Compound 31, (+)-Chromazonarol]	56.5 µg/mL	32 µg/mL	1.8	–	inactive	8.6 µg/mL (≈ 27.3 µM)	inactive	inactive	MIC Mtb H37Ra [8]: 31.4 µg/mL (≈ 99.9 µM)
CC1(C)CCCC2(C)C1CCC(C)(O)C2Cc1ccc(O)cc1O (stereo not drawn) [Compound 36]	–	–	–	did not appear to substantially change toxin production	16.6 µg/mL (≈ 49.9 µM)	8.2 µg/mL and 8.3 µg/mL	16.2 µg/mL (≈ 48.7 µM)	8.0 µg/mL (≈ 24.1 µM)	–
CC1(C)CCC[C@]2(C)C3=CC4=CC(=O)C(=O)C=C4O[C@@]3(C)CC[C@@H]12 [Compound 2, Puupehedione]	–	–	–	–	–	–	–	–	MIC against active Mtb (active Mtb): 87.6 µg/mL (≈ 268 µM); MIC in multistress dormancy model of Mtb (dormant Mtb): 15.4 µg/mL
CC1(C)CCCC2(C)C1CCC(C)(O)C2Cc1ccc(O)c(O)c1 (stereo not drawn) [Compound 38]	58.0 µg/mL	42.0 µg/mL	1.4	–	did not exhibit any activity	did not exhibit any activity	did not exhibit any activity	did not exhibit any activity	–
